# Test results taken from ChEMBL document CHEMBL2413072, “Synthesis and in vitro anticancer studies of novel C-2 arylidene congeners of lantadenes” (2013).
# How the values were obtained:
# Type in all cases: functional
# K562 [1] = experiment: Growth inhibition of human K562 cells assessed as cell growth at 10 uM by sulforhodamine B assay; conditions: read-out: Activity
# NCI-H322M [2] = experiment: Growth inhibition of human NCI-H322M cells assessed as growth inhibition at 10 uM by sulforhodamine B assay; conditions: read-out: GI
# U-251 [3] = experiment: Growth inhibition of human U251 cells assessed as growth inhibition at 10 uM by sulforhodamine B assay; conditions: read-out: GI
# U-251 [4] = experiment: Growth inhibition of human U251 cells assessed as cell growth at 10 uM by sulforhodamine B assay; conditions: read-out: Activity
# NCI-H226 [5] = experiment: Growth inhibition of human NCI-H226 cells assessed as cell growth at 10 uM by sulforhodamine B assay; conditions: read-out: Activity
# [6] = Growth inhibition of human Hs 578T cells assessed as growth inhibition at 10 uM by sulforhodamine B assay; conditions: read-out: GI
# OVCAR-5 = experiment: Growth inhibition of human OVCAR5 cells assessed as cell growth at 10 uM by sulforhodamine B assay; conditions: read-out: Activity
# SNB-19 = experiment: Growth inhibition of human SNB19 cells assessed as growth inhibition at 10 uM by sulforhodamine B assay; conditions: read-out: GI
# LOX IMVI = experiment: Growth inhibition of human LOXIMVI cells assessed as growth inhibition at 10 uM by sulforhodamine B assay; conditions: read-out: GI
# MCF7 = experiment: Growth inhibition of human MCF7 cells assessed as cell growth at 10 uM by sulforhodamine B assay; conditions: read-out: Activity
# CCRF-CEM = experiment: Growth inhibition of human CCRF-CEM cells assessed as growth inhibition at 10 uM by sulforhodamine B assay; conditions: read-out: GI
# MOLT-4 [7] = experiment: Growth inhibition of human MOLT4 cells assessed as growth inhibition at 10 uM by sulforhodamine B assay; conditions: read-out: GI
# HOP-92 [8] = experiment: Growth inhibition of human HOP92 cells assessed as growth inhibition at 10 uM by sulforhodamine B assay; conditions: read-out: GI
# SK-MEL-2 = experiment: Growth inhibition of human SK-MEL-2 cells assessed as cell growth at 10 uM by sulforhodamine B assay; conditions: read-out: Activity
# RPMI-8226 [9] = experiment: Growth inhibition of human RPMI8226 cells assessed as growth inhibition at 10 uM by sulforhodamine B assay; conditions: read-out: GI
# Malme-3M [10] = experiment: Growth inhibition of human MALME-3M cells assessed as cell growth at 10 uM by sulforhodamine B assay; conditions: read-out: Activity
# A549 [11] = experiment: Growth inhibition of human A549/ATCC cells assessed as growth inhibition at 10 uM by sulforhodamine B assay; conditions: read-out: GI
# RPMI-8226 [12] = experiment: Growth inhibition of human RPMI8226 cells assessed as cell growth at 10 uM by sulforhodamine B assay; conditions: read-out: Activity
# SW-620 = experiment: Growth inhibition of human SW620 cells assessed as cell growth at 10 uM by sulforhodamine B assay; conditions: read-out: Activity
# HL-60(TB) = experiment: Growth inhibition of human HL-60(TB) cells assessed as cell growth at 10 uM by sulforhodamine B assay; conditions: read-out: Activity
# Malme-3M [13] = experiment: Growth inhibition of human MALME-3M cells assessed as growth inhibition at 10 uM by sulforhodamine B assay; conditions: read-out: GI
# RXF 393 = experiment: Growth inhibition of human RXF393 cells assessed as growth inhibition at 10 uM by sulforhodamine B assay; conditions: read-out: GI
# MOLT-4 [14] = experiment: Growth inhibition of human MOLT4 cells assessed as cell growth at 10 uM by sulforhodamine B assay; conditions: read-out: Activity
# DU-145 = experiment: Growth inhibition of human DU145 cells assessed as cell growth at 10 uM by sulforhodamine B assay; conditions: read-out: Activity
# K562 [15] = experiment: Growth inhibition of human K562 cells assessed as growth inhibition at 10 uM by sulforhodamine B assay; conditions: read-out: GI
# UACC-257 = experiment: Growth inhibition of human UACC257 cells assessed as cell growth at 10 uM by sulforhodamine B assay; conditions: read-out: Activity
# MDA-MB-435 = experiment: Growth inhibition of human MDA-MB-435 cells assessed as growth inhibition at 10 uM by sulforhodamine B assay; conditions: read-out: GI
# MDA-MB-468 = experiment: Growth inhibition of human MDA-MB-468 cells assessed as growth inhibition at 10 uM by sulforhodamine B assay; conditions: read-out: GI
# NCI-H226 [16] = experiment: Growth inhibition of human NCI-H226 cells assessed as growth inhibition at 10 uM by sulforhodamine B assay; conditions: read-out: GI
# HCT-15 [17] = experiment: Growth inhibition of human HCT15 cells assessed as growth inhibition at 10 uM by sulforhodamine B assay; conditions: read-out: GI
# SK-MEL-28 [18] = experiment: Growth inhibition of human SK-MEL-28 cells assessed as cell growth at 10 uM by sulforhodamine B assay; conditions: read-out: Activity
# OVCAR-4 = experiment: Growth inhibition of human OVCAR4 cells assessed as cell growth at 10 uM by sulforhodamine B assay; conditions: read-out: Activity
# T47D = experiment: Growth inhibition of human T47D cells assessed as growth inhibition at 10 uM by sulforhodamine B assay; conditions: read-out: GI
# HOP-92 [19] = experiment: Growth inhibition of human HOP92 cells assessed as cell growth at 10 uM by sulforhodamine B assay; conditions: read-out: Activity
# SF-268 = experiment: Growth inhibition of human SF268 cells assessed as growth inhibition at 10 uM by sulforhodamine B assay; conditions: read-out: GI
# HCT-15 [20] = experiment: Growth inhibition of human HCT15 cells assessed as cell growth at 10 uM by sulforhodamine B assay; conditions: read-out: Activity
# A498 = experiment: Growth inhibition of human A498 cells assessed as cell growth at 10 uM by sulforhodamine B assay; conditions: read-out: Activity
# NCI-H322M [21] = experiment: Growth inhibition of human NCI-H322M cells assessed as cell growth at 10 uM by sulforhodamine B assay; conditions: read-out: Activity
# M14 [22] = experiment: Growth inhibition of human M14 cells assessed as cell growth at 10 uM by sulforhodamine B assay; conditions: read-out: Activity
# PC-3 [23] = experiment: Growth inhibition of human PC3 cells assessed as cell growth at 10 uM by sulforhodamine B assay; conditions: read-out: Activity
# [24] = Growth inhibition of human HCC2998 cells assessed as growth inhibition at 10 uM by sulforhodamine B assay; conditions: HCC 2998, read-out: GI
# UACC-62 = experiment: Growth inhibition of human UACC62 cells assessed as cell growth at 10 uM by sulforhodamine B assay; conditions: read-out: Activity
# NCI-H522 = experiment: Growth inhibition of human NCI-H522 cells assessed as growth inhibition at 10 uM by sulforhodamine B assay; conditions: read-out: GI
# PC-3 [25] = experiment: Growth inhibition of human PC3 cells assessed as growth inhibition at 10 uM by sulforhodamine B assay; conditions: read-out: GI
# M14 [26] = experiment: Growth inhibition of human M14 cells assessed as growth inhibition at 10 uM by sulforhodamine B assay; conditions: read-out: GI
# TK-10 = experiment: Growth inhibition of human TK10 cells assessed as growth inhibition at 10 uM by sulforhodamine B assay; conditions: read-out: GI
# SK-MEL-28 [27] = experiment: Growth inhibition of human SK-MEL-28 cells assessed as growth inhibition at 10 uM by sulforhodamine B assay; conditions: read-out: GI
# A549 [28] = experiment: Growth inhibition of human A549/ATCC cells assessed as cell growth at 10 uM by sulforhodamine B assay; conditions: read-out: Activity
# SF-295 = experiment: Growth inhibition of human SF295 cells assessed as growth inhibition at 10 uM by sulforhodamine B assay; conditions: read-out: GI
smiles,measurement,setting,value
C/C=C(/C)C(=O)O[C@@H]1CC(C)(C)C[C@H]2C3=CC[C@@H]4[C@@]5(C)CCC(=O)C(C)(C)[C@@H]5CC[C@@]4(C)[C@]3(C)CC[C@@]12C(=O)O [LANTADENE A],growth at 10 µM,K562 [1],44.1%
same,inhibition of growth at 10 µM,NCI-H322M [2],31.4%
same,inhibition of growth at 10 µM,U-251 [3],39.9%
same,growth at 10 µM,U-251 [4],60.1%
same,growth at 10 µM,NCI-H226 [5],82%
same,inhibition of growth at 10 µM,[6],21.2%
same,growth at 10 µM,OVCAR-5,92.4%
same,inhibition of growth at 10 µM,SNB-19,40.6%
same,inhibition of growth at 10 µM,LOX IMVI,38.2%
same,growth at 10 µM,MCF7,54.7%
same,inhibition of growth at 10 µM,CCRF-CEM,56.4%
same,inhibition of growth at 10 µM,MOLT-4 [7],56.7%
same,inhibition of growth at 10 µM,HOP-92 [8],56.3%
same,growth at 10 µM,SK-MEL-2,77.1%
same,inhibition of growth at 10 µM,RPMI-8226 [9],83.3%
same,growth at 10 µM,Malme-3M [10],80.4%
same,inhibition of growth at 10 µM,A549 [11],60.8%
same,growth at 10 µM,RPMI-8226 [12],16.6%
same,growth at 10 µM,SW-620,68.7%
same,growth at 10 µM,HL-60(TB),-5.42%
same,inhibition of growth at 10 µM,Malme-3M [13],19.6%
same,inhibition of growth at 10 µM,RXF 393,11.5%
same,growth at 10 µM,MOLT-4 [14],43.3%
same,growth at 10 µM,DU-145,82.6%
same,inhibition of growth at 10 µM,K562 [15],55.9%
same,growth at 10 µM,UACC-257,70%
same,inhibition of growth at 10 µM,MDA-MB-435,12.2%
same,inhibition of growth at 10 µM,MDA-MB-468,49.2%
same,inhibition of growth at 10 µM,NCI-H226 [16],18%
same,inhibition of growth at 10 µM,HCT-15 [17],69.8%
same,growth at 10 µM,SK-MEL-28 [18],82.7%
same,growth at 10 µM,OVCAR-4,76.9%
same,inhibition of growth at 10 µM,T47D,36.1%
same,growth at 10 µM,HOP-92 [19],43.7%
same,inhibition of growth at 10 µM,SF-268,25.9%
same,growth at 10 µM,HCT-15 [20],30.2%
same,growth at 10 µM,A498,76.2%
same,growth at 10 µM,NCI-H322M [21],68.5%
same,growth at 10 µM,M14 [22],63.8%
same,growth at 10 µM,PC-3 [23],37.2%
same,inhibition of growth at 10 µM,[24],38.6%
same,growth at 10 µM,UACC-62,49.9%
same,inhibition of growth at 10 µM,NCI-H522,33.9%
same,inhibition of growth at 10 µM,PC-3 [25],62.8%
same,inhibition of growth at 10 µM,M14 [26],36.2%
same,inhibition of growth at 10 µM,TK-10,16.7%
same,inhibition of growth at 10 µM,SK-MEL-28 [27],17.3%
same,growth at 10 µM,A549 [28],39.2%
same,inhibition of growth at 10 µM,SF-295,72.3%
CC(C)=CC(=O)O[C@@H]1CC(C)(C)C[C@H]2C3=CC[C@@H]4[C@@]5(C)CCC(=O)C(C)(C)[C@@H]5CC[C@@]4(C)[C@]3(C)CC[C@@]12C(=O)O,growth at 10 µM,K562 [1],45%
same,inhibition of growth at 10 µM,NCI-H322M [2],46%
same,inhibition of growth at 10 µM,U-251 [3],61.8%
same,growth at 10 µM,U-251 [4],38.2%
same,growth at 10 µM,NCI-H226 [5],78.2%
same,inhibition of growth at 10 µM,[6],20.4%
same,growth at 10 µM,OVCAR-5,96.3%
same,inhibition of growth at 10 µM,SNB-19,42.7%
same,inhibition of growth at 10 µM,LOX IMVI,48.8%
same,growth at 10 µM,MCF7,49.3%
same,inhibition of growth at 10 µM,CCRF-CEM,74.7%
same,inhibition of growth at 10 µM,MOLT-4 [7],63.5%
same,inhibition of growth at 10 µM,HOP-92 [8],71.6%
same,growth at 10 µM,SK-MEL-2,78.2%
same,inhibition of growth at 10 µM,RPMI-8226 [9],80.4%
same,growth at 10 µM,Malme-3M [10],85.4%
same,inhibition of growth at 10 µM,A549 [11],77.8%
same,growth at 10 µM,RPMI-8226 [12],19.6%
same,growth at 10 µM,SW-620,62.7%
same,growth at 10 µM,HL-60(TB),10.2%
same,inhibition of growth at 10 µM,Malme-3M [13],14.6%
same,inhibition of growth at 10 µM,RXF 393,15.4%
same,growth at 10 µM,MOLT-4 [14],36.5%
same,growth at 10 µM,DU-145,74.5%
same,inhibition of growth at 10 µM,K562 [15],55%
same,growth at 10 µM,UACC-257,73.9%
same,inhibition of growth at 10 µM,MDA-MB-435,10.4%
same,inhibition of growth at 10 µM,MDA-MB-468,35.8%
same,inhibition of growth at 10 µM,NCI-H226 [16],21.8%
same,inhibition of growth at 10 µM,HCT-15 [17],81.4%
same,growth at 10 µM,SK-MEL-28 [18],91.2%
same,growth at 10 µM,OVCAR-4,71.3%
same,inhibition of growth at 10 µM,T47D,38.4%
same,growth at 10 µM,HOP-92 [19],28.4%
same,inhibition of growth at 10 µM,SF-268,27%
same,growth at 10 µM,HCT-15 [20],18.6%
same,growth at 10 µM,A498,101%
same,growth at 10 µM,NCI-H322M [21],54%
same,growth at 10 µM,M14 [22],80.3%
same,growth at 10 µM,PC-3 [23],36.9%
same,inhibition of growth at 10 µM,[24],47.2%
same,growth at 10 µM,UACC-62,57.8%
same,inhibition of growth at 10 µM,NCI-H522,42.7%
same,inhibition of growth at 10 µM,PC-3 [25],63.1%
same,inhibition of growth at 10 µM,M14 [26],19.7%
same,inhibition of growth at 10 µM,TK-10,21.9%
same,inhibition of growth at 10 µM,SK-MEL-28 [27],< 10%
same,growth at 10 µM,A549 [28],22.2%
